How the values were obtained:
Assay in all cases: viability relative to DMSO control (fraction); higher = less drug effect (more viable cells)
Settings in all cases: 48 h
[1] = system: primary MCL patient cells (S041)
Summary of the method: (§1)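 Compounds were pre-plated at five concentrations, one well each, in 384-well plates, and primary mononuclear tumour cells were plated on them at 4 × 10^4 cells per well. The cells, fresh or cryopreserved, had been Ficoll-isolated from blood or bone marrow or taken from processed lymph node. After 48 h at 37 °C and 5% CO2 in RPMI-1640 with penicillin/streptomycin, L-glutamine and human serum, viability was read as CellTiter-Glo luminescence relative to the median of 16 inner DMSO wells.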

[2] = system: primary AML patient cells (S012)
Summary of the method: as §1

[3] = system: primary AML patient cells (S021)
Summary of the method: as §1

[4] = system: primary FL patient cells (S087)
Summary of the method: as §1

[5] = system: primary MCL patient cells (S053)
Summary of the method: as §1

[6] = system: primary AML patient cells (S037)
Summary of the method: as §1

[7] = system: primary T-PLL patient cells (S008)
Summary of the method: as §1

[8] = system: primary BL patient cells (S005)
Summary of the method: as §1

[9] = system: primary AML patient cells (S002)
Summary of the method: as §1

[10] = system: primary AML patient cells (S009)
Summary of the method: as §1

[11] = system: primary B-PLL patient cells (S016)
Summary of the method: as §1

[12] = system: primary MCL patient cells (S068)
Summary of the method: as §1

[13] = system: primary AML patient cells (S085)
Summary of the method: as §1

[14] = system: primary FL patient cells (S022)
Summary of the method: as §1

[15] = system: primary AML patient cells (S019)
Summary of the method: as §1

[16] = system: primary AML patient cells (S017)
Summary of the method: as §1

[17] = system: primary AML patient cells (S081)
Summary of the method: as §1

[18] = system: primary AML patient cells (S091)
Summary of the method: as §1

[19] = system: primary AML patient cells (S011)
Summary of the method: as §1

[20] = system: primary AML patient cells (S025)
Summary of the method: as §1

Cc1sc2c(c1C)C(c1ccc(Cl)cc1)=N[C@@H](CC(=O)Nc1ccc(O)cc1)c1nnc(C)n1-2 [OTX015]
viability ([1]; 0.016 µM): 1.01
viability ([1]; 0.08 µM): 1.01
viability ([1]; 0.4 µM): 0.866
viability ([1]; 2 µM): 0.806
viability ([1]; 10 µM): 0.708
viability ([2]; 0.016 µM): 0.989
viability ([2]; 0.08 µM): 0.84
viability ([2]; 0.4 µM): 0.565
viability ([2]; 2 µM): 0.379
viability ([2]; 10 µM): 0.267
viability ([3]; 0.016 µM): 0.937
viability ([3]; 0.08 µM): 1.02
viability ([3]; 0.4 µM): 0.894
viability ([3]; 2 µM): 0.815
viability ([3]; 10 µM): 0.634
viability ([4]; 0.016 µM): 1.02
viability ([4]; 0.08 µM): 1.01
viability ([4]; 0.4 µM): 0.913
viability ([4]; 2 µM): 0.866
viability ([4]; 10 µM): 0.805
viability ([5]; 0.016 µM): 0.972
viability ([5]; 0.08 µM): 0.949
viability ([5]; 0.4 µM): 0.689
viability ([5]; 2 µM): 0.546
viability ([5]; 10 µM): 0.477
viability ([6]; 0.016 µM): 1.11
viability ([6]; 0.08 µM): 0.851
viability ([6]; 0.4 µM): 1
viability ([6]; 2 µM): 0.716
viability ([6]; 10 µM): 0.97
viability ([7]; 0.016 µM): 1.02
viability ([7]; 0.08 µM): 1.01
viability ([7]; 0.4 µM): 0.983
viability ([7]; 2 µM): 0.996
viability ([7]; 10 µM): 1.02
viability ([8]; 0.016 µM): 0.977
viability ([8]; 0.08 µM): 0.911
viability ([8]; 0.4 µM): 0.818
viability ([8]; 2 µM): 0.758
viability ([8]; 10 µM): 0.802
viability ([9]; 0.016 µM): 0.853
viability ([9]; 0.08 µM): 0.565
viability ([9]; 0.4 µM): 0.396
viability ([9]; 2 µM): 0.315
viability ([9]; 10 µM): 0.317
viability ([10]; 0.016 µM): 0.859
viability ([10]; 0.08 µM): 0.752
viability ([10]; 0.4 µM): 0.6
viability ([10]; 2 µM): 0.489
viability ([10]; 10 µM): 0.457
viability ([11]; 0.016 µM): 1.06
viability ([11]; 0.08 µM): 1.15
viability ([11]; 0.4 µM): 0.891
viability ([11]; 2 µM): 0.711
viability ([11]; 10 µM): 0.687
viability ([12]; 0.016 µM): 0.856
viability ([12]; 0.08 µM): 0.616
viability ([12]; 0.4 µM): 0.266
viability ([12]; 2 µM): 0.2
viability ([12]; 10 µM): 0.184
viability ([13]; 0.016 µM): 0.861
viability ([13]; 0.08 µM): 0.614
viability ([13]; 0.4 µM): 0.312
viability ([13]; 2 µM): 0.191
viability ([13]; 10 µM): 0.178
viability ([14]; 0.016 µM): 0.981
viability ([14]; 0.08 µM): 0.971
viability ([14]; 0.4 µM): 0.955
viability ([14]; 2 µM): 0.897
viability ([14]; 10 µM): 0.874
viability ([15]; 0.016 µM): 1.14
viability ([15]; 0.08 µM): 1.12
viability ([15]; 0.4 µM): 1.08
viability ([15]; 2 µM): 0.985
viability ([15]; 10 µM): 0.965
viability ([16]; 0.016 µM): 0.96
viability ([16]; 0.08 µM): 0.937
viability ([16]; 0.4 µM): 0.573
viability ([16]; 2 µM): 0.391
viability ([16]; 10 µM): 0.354
viability ([17]; 0.016 µM): 0.847
viability ([17]; 0.08 µM): 0.793
viability ([17]; 0.4 µM): 0.475
viability ([17]; 2 µM): 0.257
viability ([17]; 10 µM): 0.205
viability ([18]; 0.016 µM): 0.741
viability ([18]; 0.08 µM): 0.478
viability ([18]; 0.4 µM): 0.276
viability ([18]; 2 µM): 0.25
viability ([18]; 10 µM): 0.254
viability ([19]; 0.016 µM): 1
viability ([19]; 0.08 µM): 0.899
viability ([19]; 0.4 µM): 0.766
viability ([19]; 2 µM): 0.742
viability ([19]; 10 µM): 0.758
viability ([20]; 0.016 µM): 0.87
viability ([20]; 0.08 µM): 0.971
viability ([20]; 0.4 µM): 0.767
viability ([20]; 2 µM): 0.629
viability ([20]; 10 µM): 0.549

O=C(c1cc(Cc2n[nH]c(=O)c3ccccc23)ccc1F)N1CCN(C(=O)C2CC2)CC1 [Olaparib]
viability ([1]; 0.024 µM): 0.845
viability ([1]; 0.12 µM): 0.889
viability ([1]; 0.6 µM): 0.93
viability ([1]; 3 µM): 0.933
viability ([1]; 15 µM): 0.895
viability ([2]; 0.024 µM): 0.928
viability ([2]; 0.12 µM): 0.976
viability ([2]; 0.6 µM): 0.955
viability ([2]; 3 µM): 0.925
viability ([2]; 15 µM): 0.876
viability ([3]; 0.024 µM): 0.878
viability ([3]; 0.12 µM): 0.846
viability ([3]; 0.6 µM): 0.895
viability ([3]; 3 µM): 0.938
viability ([3]; 15 µM): 0.797
viability ([4]; 0.024 µM): 0.882
viability ([4]; 0.12 µM): 0.916
viability ([4]; 0.6 µM): 0.911
viability ([4]; 3 µM): 0.912
viability ([4]; 15 µM): 0.845
viability ([5]; 0.024 µM): 0.801
viability ([5]; 0.12 µM): 0.863
viability ([5]; 0.6 µM): 0.834
viability ([5]; 3 µM): 0.685
viability ([5]; 15 µM): 0.643
viability ([6]; 0.024 µM): 0.853
viability ([6]; 0.12 µM): 0.895
viability ([6]; 0.6 µM): 0.915
viability ([6]; 3 µM): 0.859
viability ([6]; 15 µM): 0.776
viability ([7]; 0.024 µM): 0.945
viability ([7]; 0.12 µM): 0.962
viability ([7]; 0.6 µM): 0.957
viability ([7]; 3 µM): 0.978
viability ([7]; 15 µM): 0.94
viability ([8]; 0.024 µM): 0.938
viability ([8]; 0.12 µM): 0.985
viability ([8]; 0.6 µM): 0.977
viability ([8]; 3 µM): 0.904
viability ([8]; 15 µM): 0.878
viability ([9]; 0.024 µM): 0.804
viability ([9]; 0.12 µM): 1.05
viability ([9]; 0.6 µM): 0.935
viability ([9]; 3 µM): 0.804
viability ([9]; 15 µM): 0.748
viability ([10]; 0.024 µM): 0.977
viability ([10]; 0.12 µM): 0.987
viability ([10]; 0.6 µM): 1.02
viability ([10]; 3 µM): 0.93
viability ([10]; 15 µM): 0.958
viability ([11]; 0.024 µM): 0.86
viability ([11]; 0.12 µM): 0.871
viability ([11]; 0.6 µM): 0.872
viability ([11]; 3 µM): 0.8
viability ([11]; 15 µM): 0.722
viability ([12]; 0.024 µM): 0.896
viability ([12]; 0.12 µM): 0.838
viability ([12]; 0.6 µM): 0.714
viability ([12]; 3 µM): 0.78
viability ([12]; 15 µM): 0.585
viability ([13]; 0.024 µM): 0.861
viability ([13]; 0.12 µM): 0.866
viability ([13]; 0.6 µM): 0.988
viability ([13]; 3 µM): 0.793
viability ([13]; 15 µM): 0.992
viability ([14]; 0.024 µM): 0.828
viability ([14]; 0.12 µM): 1.07
viability ([14]; 0.6 µM): 0.937
viability ([14]; 3 µM): 0.866
viability ([14]; 15 µM): 0.875
viability ([15]; 0.024 µM): 0.851
viability ([15]; 0.12 µM): 0.939
viability ([15]; 0.6 µM): 0.91
viability ([15]; 3 µM): 0.889
viability ([15]; 15 µM): 0.893
viability ([16]; 0.024 µM): 0.796
viability ([16]; 0.12 µM): 0.917
viability ([16]; 0.6 µM): 0.931
viability ([16]; 3 µM): 0.94
viability ([16]; 15 µM): 0.914
viability ([17]; 0.024 µM): 0.818
viability ([17]; 0.12 µM): 0.858
viability ([17]; 0.6 µM): 0.889
viability ([17]; 3 µM): 0.884
viability ([17]; 15 µM): 0.894
viability ([18]; 0.024 µM): 0.857
viability ([18]; 0.12 µM): 0.796
viability ([18]; 0.6 µM): 0.883
viability ([18]; 3 µM): 0.862
viability ([18]; 15 µM): 0.691
viability ([19]; 0.024 µM): 0.832
viability ([19]; 0.12 µM): 0.871
viability ([19]; 0.6 µM): 0.873
viability ([19]; 3 µM): 0.799
viability ([19]; 15 µM): 0.603
viability ([20]; 0.024 µM): 0.995
viability ([20]; 0.12 µM): 0.973
viability ([20]; 0.6 µM): 0.95
viability ([20]; 3 µM): 1.01
viability ([20]; 15 µM): 0.861

Reference: the supplement of paper PMC10733146
